Reference: ChEMBL document CHEMBL1811895, “Regioselective synthesis of water-soluble monophosphate derivatives of combretastatin A-1” (J Nat Prod, 2011)

What was measured:
SK-OV-3 = assay: Cytotoxicity against human SKOV3 cells by SRB assay; format: functional
NCI-H460 = assay: Cytotoxicity against human NCI-H460 cells by SRB assay; format: functional
DU-145 = assay: Cytotoxicity against human DU145 cells by SRB assay; format: functional
[1] = Inhibition of tubulin polymerization in bovine brain after 20 mins by spectrophotometry; set-up: species or system Bos taurus

Compound	GI50 (SK-OV-3) [µM]	GI50 (NCI-H460) [µM]	GI50 (DU-145) [µM]	IC50 [1] [µM]
COc1ccc(/C=C\c2cc(OC)c(OC)c(OC)c2)c(OP(=O)(O)O)c1O	0.00164	0.00356	0.00277	> 40
COc1cc(/C=C\c2ccc(OC)c(OP(=O)(O)O)c2OP(=O)(O)O)cc(OC)c1OC	0.00103	0.0133	0.00287	> 40
COc1cc(/C=C\c2ccc(OC)c(OP(=O)(O)O)c2O)cc(OC)c1OC	0.0026	0.0334	0.0155	> 40
COc1cc(/C=C/c2ccc(OC)c(OP(=O)(O)O)c2O)cc(OC)c1OC	0.681	0.336	0.52	–
COc1ccc(/C=C/c2cc(OC)c(OC)c(OC)c2)c(O)c1O	2.27	1.32	2.14	11
COc1ccc(/C=C\c2cc(OC)c(OC)c(OC)c2)c(O)c1O [COMBRETASTATIN A-1]	0.0384	0.0153	0.0326	1.9
COc1ccc(/C=C/c2cc(OC)c(OC)c(OC)c2)c(OP(=O)(O)O)c1O	0.465	1.55	2.13	–
